Experimental data published in paper PMC9034232 (RSC Advances, 2021).

Tests used:
[1] = system: influenza A/H1N1/WSN/33 virus; assay: Anti-IAV activity assay; format: cell-based; conditions: 24 h, read-out: IC50 (anti-IAV activity)
in vitro = conditions: human

Structure (SMILES)	IC50 [1]	CC50 (in vitro)
Cc1cc(=O)c2c(o1)C[C@H](O)C[C@H]2O [Compound 9, (5R,7R)-5,7-dihydroxy-2-methyl-5,6,7,8-tetrahydro-4H-chromen-4-one]	16.1 µM	> 100 µM
Cc1cc(=O)c2c(o1)C[C@@H](O)C[C@H]2O [Compound 11, (5R,7S)-5,7-dihydroxy-2-methyl-5,6,7,8-tetrahydro-4H-chromen-4-one]	9 µM	> 100 µM
NC(=O)c1ncn([C@@H]2O[C@H](CO)[C@@H](O)[C@H]2O)n1 [Ribavirin, reference compound]	21.7 µM	> 100 µM
